Our source for the apoptotic cells values is patent US20240408033A1, “CELL-DERIVED NANOVESICLES FOR IN VIVO TRANSPORT AND DELIVERY OF THERAPEUTIC MATERIALS” (The Board of Trustees of the Leland Stanford Junior …, priority 2021, published 2024).

This assay concerns GL-26 GBM cells. The experiment in a line: PI staining-based apoptosis FACS analysis, GL-26 cells. Particulars: TMZ at 250 μM, alone or with mpEVs (50 pmol).

From the text: We evaluated the therapeutic potential of miRNA-loaded mpEVs (50 pmol) in GL-26 cells in combination with TMZ and quantified the chemosensitizing effects of the miRNA-loaded mpEVs using PI staining-based FACS analysis (FIG. 13).
To investigate the chemosensitizing effect of miRNAs-loaded mpEVs in the absence and presence of TMZ at different concentrations, we seeded the U87 glioma cells at a density of 1×10^5 cells per well in 12-well plates. Next, we treated the cells with mpEVs from control and CXCR4-NSCs with and without loaded miRNAs. On the following day, we treated the cells with TMZ at different concentrations (0 μM, 250 μM, and 500 μM) for each kind of EV. At 24 h after TMZ administration, we collected the cells and fixed in ice cold 70% ethanol at −20° C. for 30 min. We then washed the fixed cells once with 2 ml of PBS and stained with PI (15 nM) in the presence of RNase A (10 mg/ml) and 0.01% Triton-X100 (Life Technologies, Grand Island, NY, USA). […] Likewise, the chemosensitizing effect of miRNA loaded mpEVs for TMZ therapy was also investigated against GL26 cells by using a similar procedure.

`Cn1nnc2c(C(N)=O)ncn2c1=O` [TMZ, temozolomide] displayed an apoptotic cells of 13.9%.
